Test results published in patent US20230135729A1, “COMPOUND WITH ANTI-SPORE ACTIVITY AND PHARMACEUTICAL COMPOSITION THEREOF” (priority 2020, published 2023).
Converted amounts (≈) assume the structure as drawn.

Tests used:
Assay type in all cases: cell-based
[1] = system: spores of ATCC 43255 strain; test: Inhibition of germination of C. difficile spores (MIC), strain ATCC 43255; conditions: Clostridioides difficile, ATCC43255, 1 h; strain 43255; sodium taurocholate as germinant, BHIS medium, 37° C., OD580 for 60 min; read-out: MIC (minimum concentration that completely inhibits spore germination)
Protocol: (§1) According to a method disclosed in “The Journal of Infectious Diseases. 2013; 207: 1498-504”, spores of ATCC BBA1870, ATCC 43255 and ATCC 630 strains were obtained by culture and purification, and stored at 4° C.
(§2) Spore preparation: the C. difficile spores stored at 4° C. were heat-activated for 30 min at 65° C., centrifuged at 9,400 g for 2 min, and washed three times to remove any self-germinating spores.
(§3) Control drug: three cholic acid derivatives, a compound CamSA, a compound 20β (prepared by the method of “Journal of Medicinal Chemistry. 2017, 60 (8): 3451-3471”), and a compound 12a (prepared by the method of “Journal of Medicinal Chemistry. 2018, 61, 6759-6778”), were used as control drugs.
(§4) Compound preparation: the compound of the present disclosure, and the positive control drugs CamSA, 20β, and 12a were dissolved in DMSO, to prepare a stock solution with a concentration of 10 mM (prepared for immediate use).
(§5) The detection was conducted in a 96-well cell culture plate at a constant temperature of 37° C.; a final volume of each well of the 96-well plate was […] and a buffer was the BHIS medium; 150 μl of spores and drugs were added to the well in advance, and 50 μl of 4 mg/ml sodium taurocholate was added; OD580 was detected every 1 min immediately using a microplate reader, for continuously 60 min. A germination agent control group and a non-germination group were set up; after the detection, a final OD value of each well was compared with an initial value, and compared with the germination agent group to calculate a germination rate and an inhibition rate. A formula for the germination rate was:
(§6) Inhibition rate=100%−germination rate.

[2] = system: spores of ATCC BBA1870 strain; test: Inhibition of germination of C. difficile spores (MIC), strain ATCC BBA1870; conditions: Clostridioides difficile, ATCCBBA1870STRAIN, 1 h; strain 1870; sodium taurocholate as germinant, BHIS medium, 37° C., OD580 for 60 min; read-out: MIC (minimum concentration that completely inhibits spore germination)
Protocol: as §1, §2, §3, §4, §5, §6

[3] = system: spores of ATCC 630 strain; test: Inhibition of germination of C. difficile spores (MIC), strain ATCC 630; conditions: Clostridioides difficile, ATCC630, 1 h; strain 630; sodium taurocholate as germinant, BHIS medium, 37° C., OD580 for 60 min; read-out: MIC (minimum concentration that completely inhibits spore germination)
Protocol: as §1, §2, §3, §4, §5, §6

Row | Compound | MIC [1] | MIC [2] | MIC [3]
1 | C[C@H](CC(=O)NC(CC(=O)O)c1ccccc1)[C@H]1CC[C@H]2[C@@H]3C(=O)C[C@@H]4CC(=O)CC[C@]4(C)[C@H]3CC[C@]12C (stereo partly drawn) [Compound I-64] | > 256 µM | > 256 µM | > 256 µM
2 | C[C@H](CC(=O)NCc1ccccn1)[C@H]1CC[C@H]2[C@@H]3C(=O)C[C@@H]4CC(=O)CC[C@]4(C)[C@H]3CC[C@]12C [Compound I-65] | 128 µM (≈ 59.5 µg/mL) | 128 µM (≈ 59.5 µg/mL) | 128 µM (≈ 59.5 µg/mL)
3 | CC(C)[C@@H](NC(=O)C[C@@H](C)[C@H]1CC[C@H]2[C@@H]3C(=O)C[C@@H]4CC(=O)CC[C@]4(C)[C@H]3CC[C@]12C)c1cccs1 [Compound I-66] | 0.25 µM (≈ 0.128 µg/mL) | 0.25 µM (≈ 0.128 µg/mL) | 0.25 µM (≈ 0.128 µg/mL)
4 | CC(C)[C@H](NC(=O)C[C@@H](C)[C@H]1CC[C@H]2[C@@H]3C(=O)C[C@@H]4CC(=O)CC[C@]4(C)[C@H]3CC[C@]12C)c1cccs1 [Compound I-67] | > 256 µM | > 256 µM | > 256 µM
5 | CCC(NC(=O)C[C@@H](C)[C@H]1CC[C@H]2[C@@H]3C(=O)C[C@@H]4CC(=O)CC[C@]4(C)[C@H]3CC[C@]12C)c1ccc(Cl)s1 (stereo partly drawn) [Compound I-68] | 2 µM (≈ 1.06 µg/mL) | 1 µM (≈ 0.532 µg/mL) | 1 µM (≈ 0.532 µg/mL)
6 | CC[C@H](NC(=O)C[C@@H](C)[C@H]1CC[C@H]2[C@@H]3C(=O)C[C@@H]4CC(=O)CC[C@]4(C)[C@H]3CC[C@]12C)c1ccc(Cl)s1 [Compound I-69] | 16 µM (≈ 8.52 µg/mL) | 8 µM (≈ 4.26 µg/mL) | 8 µM (≈ 4.26 µg/mL)
7 | CC[C@@H](NC(=O)C[C@@H](C)[C@H]1CC[C@H]2[C@@H]3C(=O)C[C@@H]4CC(=O)CC[C@]4(C)[C@H]3CC[C@]12C)c1ccc(Cl)s1 [Compound I-70] | 0.5 µM (≈ 0.266 µg/mL) | 0.25 µM (≈ 0.133 µg/mL) | 0.25 µM (≈ 0.133 µg/mL)
8 | CC[C@H](NC(=O)C[C@@H](C)[C@H]1CC[C@H]2[C@@H]3C(=O)C[C@@H]4CC(=O)CC[C@]4(C)[C@H]3CC[C@]12C)c1ccc(Br)s1 [Compound I-71] | 16 µM (≈ 9.23 µg/mL) | 32 µM (≈ 18.5 µg/mL) | 16 µM (≈ 9.23 µg/mL)
9 | CC[C@@H](NC(=O)C[C@@H](C)[C@H]1CC[C@H]2[C@@H]3C(=O)C[C@@H]4CC(=O)CC[C@]4(C)[C@H]3CC[C@]12C)c1ccc(Br)s1 [Compound I-72] | 1 µM (≈ 0.577 µg/mL) | 1 µM (≈ 0.577 µg/mL) | 0.5 µM (≈ 0.288 µg/mL)
10 | CC[C@H](NC(=O)C[C@@H](C)[C@H]1CC[C@H]2[C@@H]3C(=O)C[C@@H]4CC(=O)CC[C@]4(C)[C@H]3CC[C@]12C)c1ccc(S(=O)(=O)O)s1 [Compound I-73] | > 256 µM | > 256 µM | > 256 µM
11 | CC[C@@H](NC(=O)C[C@@H](C)[C@H]1CC[C@H]2[C@@H]3C(=O)C[C@@H]4CC(=O)CC[C@]4(C)[C@H]3CC[C@]12C)c1ccc(S(=O)(=O)O)s1 [Compound I-74] | 16 µM (≈ 9.24 µg/mL) | 16 µM (≈ 9.24 µg/mL) | 16 µM (≈ 9.24 µg/mL)
12 | CC(C)C(NC(=O)C[C@@H](C)[C@H]1CC[C@H]2[C@@H]3C(=O)C[C@@H]4CC(=O)CC[C@]4(C)[C@H]3CC[C@]12C)c1ccc(Cl)s1 (stereo partly drawn) [Compound I-75] | 0.5 µM (≈ 0.273 µg/mL) | 0.5 µM (≈ 0.273 µg/mL) | 0.5 µM (≈ 0.273 µg/mL)
13 | CC(C)[C@H](NC(=O)C[C@@H](C)[C@H]1CC[C@H]2[C@@H]3C(=O)C[C@@H]4CC(=O)CC[C@]4(C)[C@H]3CC[C@]12C)c1ccc(Cl)s1 [Compound I-76] | > 256 µM | > 256 µM | > 256 µM
14 | CC(C)[C@@H](NC(=O)C[C@@H](C)[C@H]1CC[C@H]2[C@@H]3C(=O)C[C@@H]4CC(=O)CC[C@]4(C)[C@H]3CC[C@]12C)c1ccc(Cl)s1 [Compound I-77] | 0.25 µM (≈ 0.137 µg/mL) | 0.25 µM (≈ 0.137 µg/mL) | 0.25 µM (≈ 0.137 µg/mL)
15 | CC(C)C(NC(=O)C[C@@H](C)[C@H]1CC[C@H]2[C@@H]3C(=O)C[C@@H]4CC(=O)CC[C@]4(C)[C@H]3CC[C@]12C)c1ccc(Br)s1 (stereo partly drawn) [Compound I-78] | 1 µM (≈ 0.591 µg/mL) | 0.5 µM (≈ 0.295 µg/mL) | 0.5 µM (≈ 0.295 µg/mL)
16 | CC(C)[C@H](NC(=O)C[C@@H](C)[C@H]1CC[C@H]2[C@@H]3C(=O)C[C@@H]4CC(=O)CC[C@]4(C)[C@H]3CC[C@]12C)c1ccc(Br)s1 [Compound I-79] | 8 µM (≈ 4.73 µg/mL) | 8 µM (≈ 4.73 µg/mL) | 4 µM (≈ 2.36 µg/mL)
17 | CC(C)[C@@H](NC(=O)C[C@@H](C)[C@H]1CC[C@H]2[C@@H]3C(=O)C[C@@H]4CC(=O)CC[C@]4(C)[C@H]3CC[C@]12C)c1ccc(Br)s1 [Compound I-80] | 0.125 µM (≈ 0.0738 µg/mL) | 0.125 µM (≈ 0.0738 µg/mL) | 0.125 µM (≈ 0.0738 µg/mL)
18 | CC(C)C(NC(=O)C[C@@H](C)[C@H]1CC[C@H]2[C@@H]3C(=O)C[C@@H]4CC(=O)CC[C@]4(C)[C@H]3CC[C@]12C)c1ccc(S(=O)(=O)O)s1 (stereo partly drawn) [Compound I-81] | 32 µM (≈ 18.9 µg/mL) | 32 µM (≈ 18.9 µg/mL) | 32 µM (≈ 18.9 µg/mL)
19 | CC(C)[C@H](NC(=O)C[C@@H](C)[C@H]1CC[C@H]2[C@@H]3C(=O)C[C@@H]4CC(=O)CC[C@]4(C)[C@H]3CC[C@]12C)c1ccc(S(=O)(=O)O)s1 [Compound I-82] | 256 µM (≈ 152 µg/mL) | > 256 µM | > 256 µM
20 | CC(C)[C@@H](NC(=O)C[C@@H](C)[C@H]1CC[C@H]2[C@@H]3C(=O)C[C@@H]4CC(=O)CC[C@]4(C)[C@H]3CC[C@]12C)c1ccc(S(=O)(=O)O)s1 [Compound I-83] | 16 µM (≈ 9.47 µg/mL) | 16 µM (≈ 9.47 µg/mL) | 16 µM (≈ 9.47 µg/mL)
21 | CCC(NC(=O)C[C@@H](C)[C@H]1CC[C@H]2[C@@H]3[C@H](O)C[C@@H]4CC(=O)CC[C@]4(C)[C@H]3CC[C@]12C)c1cccs1 (stereo partly drawn) [Compound I-84] | 1 µM (≈ 0.5 µg/mL) | 1 µM (≈ 0.5 µg/mL) | 1 µM (≈ 0.5 µg/mL)
22 | C[C@H](CC(=O)NC(c1cccs1)C1CC1)[C@H]1CC[C@H]2[C@@H]3[C@H](O)C[C@@H]4CC(=O)CC[C@]4(C)[C@H]3CC[C@]12C (stereo partly drawn) [Compound I-85] | 0.5 µM (≈ 0.256 µg/mL) | 0.5 µM (≈ 0.256 µg/mL) | 0.5 µM (≈ 0.256 µg/mL)
23 | CCC(NC(=O)C[C@@H](C)[C@H]1CC[C@H]2[C@@H]3[C@H](O)C[C@@H]4CC(=O)CC[C@]4(C)[C@H]3CC[C@]12C)c1ccc(Cl)s1 (stereo partly drawn) [Compound I-86] | 0.5 µM (≈ 0.267 µg/mL) | 0.5 µM (≈ 0.267 µg/mL) | 0.5 µM (≈ 0.267 µg/mL)
24 | CC[C@H](NC(=O)C[C@@H](C)[C@H]1CC[C@H]2[C@@H]3[C@H](O)C[C@@H]4CC(=O)CC[C@]4(C)[C@H]3CC[C@]12C)c1ccc(Cl)s1 [Compound I-87] | 128 µM (≈ 68.4 µg/mL) | 256 µM (≈ 137 µg/mL) | 128 µM (≈ 68.4 µg/mL)
25 | CC[C@@H](NC(=O)C[C@@H](C)[C@H]1CC[C@H]2[C@@H]3[C@H](O)C[C@@H]4CC(=O)CC[C@]4(C)[C@H]3CC[C@]12C)c1ccc(Cl)s1 [Compound I-88] | 0.25 µM (≈ 0.134 µg/mL) | 0.25 µM (≈ 0.134 µg/mL) | 0.125 µM (≈ 0.0668 µg/mL)
26 | CCC(NC(=O)C[C@@H](C)[C@H]1CC[C@H]2[C@@H]3[C@H](O)C[C@@H]4CC(=O)CC[C@]4(C)[C@H]3CC[C@]12C)c1ccc(Br)s1 (stereo partly drawn) [Compound I-89] | 0.5 µM (≈ 0.289 µg/mL) | 0.5 µM (≈ 0.289 µg/mL) | 0.5 µM (≈ 0.289 µg/mL)
27 | CC[C@H](NC(=O)C[C@@H](C)[C@H]1CC[C@H]2[C@@H]3[C@H](O)C[C@@H]4CC(=O)CC[C@]4(C)[C@H]3CC[C@]12C)c1ccc(Br)s1 [Compound I-90] | > 256 µM | > 256 µM | > 256 µM
28 | CC[C@@H](NC(=O)C[C@@H](C)[C@H]1CC[C@H]2[C@@H]3[C@H](O)C[C@@H]4CC(=O)CC[C@]4(C)[C@H]3CC[C@]12C)c1ccc(Br)s1 [Compound I-91] | 0.25 µM (≈ 0.145 µg/mL) | 0.25 µM (≈ 0.145 µg/mL) | 0.25 µM (≈ 0.145 µg/mL)
29 | CCC(NC(=O)C[C@@H](C)[C@H]1CC[C@H]2[C@@H]3[C@H](O)C[C@@H]4CC(=O)CC[C@]4(C)[C@H]3CC[C@]12C)c1ccc(S(=O)(=O)O)s1 (stereo partly drawn) [Compound I-92] | 32 µM (≈ 18.6 µg/mL) | 16 µM (≈ 9.28 µg/mL) | 16 µM (≈ 9.28 µg/mL)
30 | CC[C@H](NC(=O)C[C@@H](C)[C@H]1CC[C@H]2[C@@H]3[C@H](O)C[C@@H]4CC(=O)CC[C@]4(C)[C@H]3CC[C@]12C)c1ccc(S(=O)(=O)O)s1 [Compound I-93] | > 256 µM | > 256 µM | > 256 µM
